Results on 1 compound are retold here after patent US8809627B2, “Plant isoflavone and isoflavanone O-methyltransferase genes” (The Samuel Roberts Noble Foundation, Inc., priority 2006, dated 2014).

Common to all, as to format: cell-based, Medicago truncatula
The test system of assay [1] is MtIOMT4. As to the kind of experiment: Microarray analysis of elicitor-treated cell suspension cultures: MtIOMT4 transcripts. The following applies: 2 and 24 hours post-elicitation. The source says: (§1) The Affymetrix DNA chip contained 61,200 probe sets: 32,167 M. truncatula EST/mRNA-based and chloroplast gene-based probe sets (TIGR Gene Index version 8, January, 2005, 36,878 unique sequences); 18,733 M. truncatula IMGAG (International Medicago Genome Annotation Group) and phase 2/3 BAC prediction-based probe sets; 1,896 M. sativa EST/mRNA based probe sets; 8,305 Sinorhizobium meliloti gene prediction-based probe sets. For microarray experiments, total RNA was extracted from cell suspension cultures (Suzuki et al., 2005) using TRI Reagent (Molecular Research Center, Inc., Cincinnati, Ohio) and purified using the RNeasy® MinElute Cleanup Kit (Qiagen, Valencia, Calif.), according to the manufacturer's instructions. For all samples, 10 μg of total RNA was used for labeling reactions. Labeling, hybridization and data processing were performed according to the manufacturer's instruction (Affymetrix, Santa Clara, Calif.). For both YE and MeJA treatments, transcript profiles were examined at early (2 h) and late (24 h) time post-elicitation. For each sample point, two biological replicates were included, and the average signal intensities were used to calculate ratio of treatment to its corresponding control. […]

Assay [2] has as its system MtIOMT6. Description: Microarray analysis of elicitor-treated cell suspension cultures: MtIOMT6 transcripts. The following applies: 2 and 24 hours post-elicitation.
Source text: as §1

In assay [3] the test system is MtIOMT7. Description: Microarray analysis of elicitor-treated cell suspension cultures: MtIOMT7 transcripts. The note with it: 2 and 24 hours post-elicitation.
Source text: as §1

In assay [4] the test system is IFS genes. As to the kind of experiment: Microarray analysis of elicitor-treated cell suspension cultures: IFS transcripts. The note with it: MeJA: 24 h after treatment. The source says:
The Affymetrix DNA chip contained 61,200 probe sets: 32,167 M. truncatula EST/mRNA-based and chloroplast gene-based probe sets (TIGR Gene Index version 8, January, 2005, 36,878 unique sequences); 18,733 M. truncatula IMGAG (International Medicago Genome Annotation Group) and phase 2/3 BAC prediction-based probe sets; 1,896 M. sativa EST/mRNA based probe sets; 8,305 Sinorhizobium meliloti gene prediction-based probe sets. For microarray experiments, total RNA was extracted from cell suspension cultures (Suzuki et al., 2005) using TRI Reagent (Molecular Research Center, Inc., Cincinnati, Ohio) and purified using the RNeasy® MinElute Cleanup Kit (Qiagen, Valencia, Calif.), according to the manufacturer's instructions. For all samples, 10 μg of total RNA was used for labeling reactions. Labeling, hybridization and data processing were performed according to the manufacturer's instruction (Affymetrix, Santa Clara, Calif.). For both YE and MeJA treatments, transcript profiles were examined at early (2 h) and late (24 h) time post-elicitation. For each sample point, two biological replicates were included, and the average signal intensities were used to calculate ratio of treatment to its corresponding control.
MtIOMTs 6-8 are annotated as encoding 2,7,4′-trihydroxyisoflavanone 4′-OMTs. […]

The subject of assay [5] is MtIOMT1. Description: Expression in elicitor-treated cell cultures: MtIOMT1 transcripts.
Source text: as §1

For assay [6], the system named is MtIOMT2. As to the kind of experiment: RT-PCR analysis of elicitor-treated cell cultures: MtIOMT2. On the procedure: (§2) Infection of M. truncatula with Phoma medicaginis was performed as described (Deavours and Dixon, 2005). RNA was extracted from plant tissues using TRI Reagent (Molecular Research Center, Inc., Cincinnati, Ohio) according to the manufacturer's instructions. For RT-PCR, 2 μg of total RNA was transcribed into cDNA using Ready-To-Go RT-PCR beads (Amersham, Piscataway, N.J.) and oligo-dT primer. Two μl of cDNA was used in each PCR reaction (50 μl total) with Ex-Taq PCR reagents (Takara Bio Inc., Shiga, Japan) and the primers used are listed in Table 1 (SEQ ID NOs:16-29). PCR conditions were 94° C., 5 min; 25-32 cycles of 94° C. for 1 min, 55° C. for 1 min, 72° C. for 1 min; followed by 72° C. for 10 min. PCR products were resolved on a 1% (w/v) TAE-agarose gel and visualized with ethidium bromide.
(§3) Differential induction of MtIOMTs in response to elicitation was also observed in M. truncatula cell cultures treated with yeast elicitor (YE) or methyl jasmonate (MeJA), which induce different global patterns of genetic re-programming (Suzuki et al., 2005). Changes in IOMT transcripts in elicited cells were inferred from microarray data generated utilizing Affymetrix Medicago genome arrays with 61K probe sets (www.affymetrix.com). […]

Assay [7] concerns MtIOMT6. Description: RT-PCR analysis of elicitor-treated cell cultures: MtIOMT6. On the procedure:
as §2, §3

Entries after “also recorded” stand apart in the source; their conditions may differ.

With `CC/C=C\CC1C(=O)CCC1CC(=O)OC` (stereo not shown) [MeJA, methyl jasmonate], the “Induction of MtIOMT4 transcripts, treatment vs control” value in assay [1] is “down-regulated”. Moreover, the “Induction of MtIOMT6 transcripts, treatment vs control” value in assay [2] was “massively induced; also recorded: very strongly induced”. Further, in assay [3], the “Induction of MtIOMT7 transcripts, treatment vs control” value was “massively induced; also recorded: very strongly induced”. For the same compound, the “Change of IFS gene transcripts, treatment vs control” value in assay [4] is listed as “down-regulated; also recorded: consistently reduced”. The “Induction of MtIOMT1 transcripts” value in assay [5] is reported as “induced”. For the same compound, the “Induction of MtIOMT2 transcripts” value in assay [6] is on record as “strong induction”. For the same compound, the “Induction of MtIOMT6 transcripts” value in assay [7] is “strong induction”.
